Assay results reported in US8124794B2, “Method for the asymmetric synthesis of beta-lactone compounds” (Sanford-Burnham Medical Research Institute, priority 2006, dated 2012).
Read-outs that look alike come from different tables or passages of the source.

Tests used:
[1] = biological target: T1, recombinant thioesterase domain of fatty acid synthase (FAS TE) (Homo sapiens, UniProt P49327); assay: Fluorogenic assay (4-MUH substrate) for inhibition of recombinant FAS thioesterase domain; assay type: biochemical
T1 construct: Expression of the recombinant thioesterase domain of FAS was performed as described previously
Excerpt: The synthetic fluorogenic substrate, 4-methylumbelliferyl heptanoate (4-MUH), was purchased from Sigma (St. Louis, Mo.). […] Results are the average of triplicate time points.

[2] = system: normal HMECs; assay: Apoptosis by DNA fragmentation ELISA
[3] = system: MDA-MB-435 cells; assay: Apoptosis by DNA fragmentation ELISA; conditions: Homo sapiens, MDA-MB-435, read-out: half-maximal apoptotic response
[4] = system: cellular fatty acid synthesis; assay: [14C]-acetate incorporation into fatty acids, prostate tumor cells; assay type: cell-based; conditions: level of orlistat inhibiting about 90% of activity-based labeling of FAS
Protocol: Studies were performed to determine the effect of orlistat on tumor cells. As a first step, we measured the ability to inhibit the activity of FAS in whole cells. […] . A concentration-dependent inhibition of labeling by FP-Bodipy was evident (FIG. 2; top panel), indicating enzyme inhibition. […] .
Inhibition of fatty acid synthesis by orlistat.

[5] = system: HUVEC; assay: HUVEC proliferation by BrdU incorporation; assay type: cell-based, human; conditions: for IC50: Homo sapiens, HUVEC, read-out: concentration required for a half maximal effect on proliferation
Protocol: The effect of orlistat on HUVEC proliferation induced by several mitogenic stimuli was assessed by BrdU incorporation. Orlistat and mitogen were added simultaneously to serum-starved cells, and BrdU included during the period equivalent to the second round of the cell cycle after mitogen addition. Orlistat inhibited proliferation induced by complete endothelial medium (containing a undefined mixture of mitogens), by bFGF and by VEGF. […] Cell proliferation was measured by incorporation of BrdU. HUVEC were seeded in 96 well plates at a density of 2000 cells/well and cultured in Endothelial Growth medium (EGM; Clonetics, Walkerville, Md.) for 24 h at 37° C. Cells were serum-starved for further 24 h in Endothelial Basal Medium (EBM; Clonetics, Walkerville, Md.)+0.2% FCS. Medium was replaced with orlistat (40-0 uM) diluted in (A) EGM, (B) EBM+2% FCS+bFGF (5 ng/ml), (C) EBM+2% FCS+VEGF (20 ng/ml) or (D) EBM+0.2% FCS. Cells were incubated 48 h at 37 deg C., with BrdU present during the final 24 h. Medium was removed, the cell monolayers fixed, and BrdU incorporation measured by ELISA. Proliferation was expressed as a percentage of that measured in the absence of orlistat.

[6] = system: cellular fatty acid synthesis in MDA-MB-435 cells; assay: [14C]-acetate incorporation into cellular fatty acids, MDA-MB-435 cells; conditions: MDA-MB-435, 100 μM
Protocol: Cells were seeded at density of 2.5×10^4 cells/well in 24-well plates. Prior to the addition of orlistat, the wells were washed twice with PBS. Serum-free RPMI containing 300 μg/ml BSA and insulin/transferrin/selenium supplement was added to the wells, with or without orlistat. The cells were incubated for two hours prior to the addition of 1 μCi of [^14C]-acetate to label newly synthesized fatty acids. After two hours, the labeling medium was removed and the cells were washed with PBS/EDTA and trypsinized The cells pellets were washed twice more with PBS and fatty acids were extracted by the addition of an equal mixture of chloroform-methanol for 30 minutes. The extracted material was dried under a stream of N2 gas and extracted further with water-saturated butanol. The butanol was removed by drying under a stream of N2 gas and labeled fatty acids were detected by scintillation counting.
MDA-MB-435 cells were fed [^14C]-acetate as a precursor, and treated with orlistat.

[7] = system: hydrolase migrating at 31 kDa; assay: FP-TAMRA labeling of serine hydrolases in mammary cell lysates; assay type: biochemical, human
Protocol: (§1) The serine hydrolase activity profiles of the prostate cell lines were measured using the fluorophosphonate probe fp-PEG-TAMRA using methods described previously (Liu et al., supra; Kidd et al., supra). Briefly, 40 μl of a 1 mg/ml solution of the soluble fractions of each cell lines were treated with 2 μM fp-PEG-TAMRA for one hour at ambient temperature. The labeling reactions were stopped by the addition of Laemmli buffer followed by boiling for 5 minutes. As a control for non-specific reaction of the probe, a duplicate sample was boiled for ten minutes prior to labeling with fp-PEG-TAMRA to denature all enzymatic activity. The labeled samples were resolved by 10% SDS-PAGE and visualized by scanning with a Hitachi flatbed scanner at 605 nm.
(§2) Ebelactone A and B stocks were made in DMSO. Orlistat was made in EtOH. Cell lysate were generated at 1 mg/ml as described above. Samples (40 μg) were incubated with inhibitors for twenty minutes prior to addition of fp-PEG-TAMRA. The final concentration of DMSO or EtOH in each reaction was 10%. The labeling reactions were stopped by the addition of Laemmli sample buffer and samples were resolved on 10% SDS-PAGE and visualized.
(§3) Labeling of serine hydrolases in the cell lysates with FP-TAMRA was challenged with each of the beta-lactones Inhibition experiments were performed under pre-steady state conditions, so that relative IC50 values could be compared. […] Tetrahydrolipstatin is selective for the hydrolase at 270 kDa that is expressed in breast cancer cell lines.

[8] = system: hydrolase expressed at 28 kDa; assay: as above; assay type: biochemical, human
Protocol: as §1, §2, §3

[9] = recombinant FAS TE, 4-MUH substrate, 30 min pre-incubation at 37 deg.C, read-out: apparent Ki

T1 sequence (P49327 2207-2511 limits assumed): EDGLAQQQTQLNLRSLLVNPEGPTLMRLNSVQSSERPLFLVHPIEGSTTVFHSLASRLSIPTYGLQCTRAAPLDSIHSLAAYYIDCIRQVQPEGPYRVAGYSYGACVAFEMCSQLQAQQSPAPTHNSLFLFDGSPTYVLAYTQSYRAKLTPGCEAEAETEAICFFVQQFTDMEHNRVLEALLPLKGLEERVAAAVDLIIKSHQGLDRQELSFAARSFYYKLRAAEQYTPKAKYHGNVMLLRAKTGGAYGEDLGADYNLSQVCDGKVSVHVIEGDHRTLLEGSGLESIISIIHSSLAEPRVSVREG

In the case of `CCCCC[C@@H]1OC(=O)[C@@H]1CCCC` (stereo in doubt) [3a, (3R,4S)-3-butyl-4-pentyloxetan-2-one], the Ki [1, 9] is reported as 23.1 ± 4.2 µM.
In the case of `O=C1O/C(=C\CC2CCCCC2)[C@@H]1CC1CCCCC1` [2c], the Ki [1, 9] is reported as greater than 100 µM.
In the case of `O=C1O/C(=C\Cc2ccccc2)[C@@H]1Cc1ccccc1` [2d], the Ki [1, 9] is reported as 5.04 ± 2.1 µM.
Compound `O=C1O[C@H](CCC2CCCC2)[C@@H]1CC1CCCC1` [3b] has a Ki [1, 9] of 13.5 ± 7.8 µM.
Compound `O=C1O[C@H](CCC2CCCCC2)[C@@H]1CC1CCCCC1` [3c] has a Ki [1, 9] of 7.7 ± 0.43 µM.
Compound `O=C1O[C@H](CCc2ccccc2)[C@@H]1Cc1ccccc1` [3d] has a Ki [1, 9] of 2.5 ± 0.47 µM.
`COC(=O)CC[C@H]1OC(=O)[C@H]1CC(=O)OC` [3e] gave a Ki [1, 9] greater than 100 µM.
With `CCCCC[C@@H]1OC(=O)[C@]1(C)CCCC` [8a, (3R,4S)-3-butyl-3-methyl-4-pentyloxetan-2-one] the Ki [1, 9] was 14.6 ± 4 µM.
For `CCCCC[C@@H]1OC(=O)[C@@]1(CCCC)Cc1ccccc1` [8b, (3S,4S)-3-benzyl-3-butyl-4-pentyloxetan-2-one], the Ki [1, 9] was 19.2 ± 0.36 µM.
With `CCCCCCCCCCC[C@@H](C[C@@H]1OC(=O)[C@H]1CCCCCC)OC(=O)[C@H](CC(C)C)NC=O` [Orlistat, tetrahydrolipstatin] the “apoptotic response across a range of orlistat” value [2] was “No effect”, the EC50 [3] was roughly 4 µM and the “reduction of total cellular fatty acid synthesis” value [4] was “approximately 70%”. The IC50 ([5]; VEGF) was 1250 nM, the IC50 ([5]; bFGF) was 1000 nM and the IC50 ([5]; complete medium) was 4000 nM. The “concentration at which maximum inhibition of proliferation was achieved” value ([5]; complete medium, bFGF or VEGF) was no less than 10 µM, the “maximum inhibition of proliferation” value ([5]; stimulated with VEGF) was roughly 80% and the “maximum inhibition of proliferation” value ([5]; stimulated with bFGF) was roughly 90%. The “maximum inhibition of proliferation” value ([5]; stimulated with complete medium) was roughly 90% and the “reduction of incorporation of [14C]-acetate into cellular fatty acids” value [6] was “approximately 70%”.
`CC[C@H](C)[C@@H](O)[C@H](C)C(=O)[C@H](C)/C=C(\C)C[C@H](C)C1OC(=O)[C@H]1C` (some centres unmarked) [ebelactone A] was tested, and the “inhibition of labeling of 31 kDa hydrolase” value [7] was “far less effective” and the “inhibition of labeling of 28 kDa hydrolase” value [8] was “potent inhibitor”.
For `CC[C@@H]1C(=O)OC1[C@@H](C)C/C(C)=C/[C@@H](C)C(=O)[C@@H](C)[C@H](O)[C@@H](C)CC` (some centres unmarked) [ebelactone B], the “inhibition of labeling of 31 kDa hydrolase” value [7] was “abolished labeling” and the “inhibition of labeling of 28 kDa hydrolase” value [8] was “little effect”.
For `CCCCC[C@H]1OC(=O)[C@@H]1CCCC` [trans-3a, (3R,4R)-3-butyl-4-pentyloxetan-2-one], the Ki [1, 9] was 4.01 ± 1.9 µM.
`O=C1O[C@H](CCc2ccccc2)[C@H]1Cc1ccccc1` [trans-3d] was tested, and the Ki [1] was 3.3 ± 0.2 µM.
